A short description of series [1]: 1-octanol/PBS distribution co-efficient, log D of the compound at […] at pH 7.4 after 30 mins by HPLC-MS/MS method. It counts as physicochemical.
For series [2], the system named is Hepatocyte. Description: Cytotoxicity against F344/DuCrlCrlj rat primary hepatocytes assessed as reduction in mitochondrial enzyme activity at 10 to 100 uM after 24 hrs by WST8 assay. It counts as cell-based.
Series [3] in a line: Oral bioavailability in cynomolgus monkey at 3 mg/kg by LC-MS/MS. The note with it: in vivo. It counts as ADME, organism-based, Macaca fascicularis.
The target in series [4] is T1, Peroxisome proliferator-activated receptor gamma (Homo sapiens) (UniProt P37231).
T1 sequence (whole entry): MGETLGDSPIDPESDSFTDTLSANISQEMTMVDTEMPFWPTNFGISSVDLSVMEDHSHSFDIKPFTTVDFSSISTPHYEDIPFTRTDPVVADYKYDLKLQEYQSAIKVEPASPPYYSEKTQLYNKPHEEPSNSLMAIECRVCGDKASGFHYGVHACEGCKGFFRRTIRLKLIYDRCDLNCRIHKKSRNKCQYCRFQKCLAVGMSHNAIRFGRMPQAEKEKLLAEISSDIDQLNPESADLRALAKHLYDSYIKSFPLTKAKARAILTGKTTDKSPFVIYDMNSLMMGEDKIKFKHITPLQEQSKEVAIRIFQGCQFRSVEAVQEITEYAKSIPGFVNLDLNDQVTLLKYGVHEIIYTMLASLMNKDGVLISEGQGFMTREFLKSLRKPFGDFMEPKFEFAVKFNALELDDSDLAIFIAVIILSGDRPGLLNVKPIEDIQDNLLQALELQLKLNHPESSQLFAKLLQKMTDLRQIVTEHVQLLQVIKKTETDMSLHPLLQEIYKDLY
Kind of series: Agonist activity at recombinant human GAL4-DBD fused PPARgamma LBD expressed in COS7 cells at 10 uM after 24 hrs by luciferase reporter gene assay relative to rosiglitazone. The format is cell-based. (In a reporter assay the amount or activity of a reporter protein is the signal.)

A short description of series [5]: Apparent permeability of the compound after 4 hrs by PAMPA. It counts as ADME. For orientation: PAMPA measures passive passage across an artificial lipid membrane.
The target of series [6] is T2, Peroxisome proliferator-activated receptor alpha (Homo sapiens) (UniProt Q07869).
T2 sequence (whole entry): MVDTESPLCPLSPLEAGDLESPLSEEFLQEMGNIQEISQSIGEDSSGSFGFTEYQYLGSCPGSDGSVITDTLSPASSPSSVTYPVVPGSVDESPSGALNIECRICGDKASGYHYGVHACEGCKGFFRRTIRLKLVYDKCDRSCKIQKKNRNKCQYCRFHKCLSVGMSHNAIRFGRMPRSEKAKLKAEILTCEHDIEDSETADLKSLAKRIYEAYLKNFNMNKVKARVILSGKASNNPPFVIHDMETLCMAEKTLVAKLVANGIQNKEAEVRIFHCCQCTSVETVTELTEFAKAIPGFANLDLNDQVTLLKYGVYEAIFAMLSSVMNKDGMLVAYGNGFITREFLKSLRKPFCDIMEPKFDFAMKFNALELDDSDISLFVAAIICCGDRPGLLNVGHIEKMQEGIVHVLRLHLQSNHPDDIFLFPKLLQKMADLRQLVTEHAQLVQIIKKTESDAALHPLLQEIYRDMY
Kind of series: Agonist activity at recombinant human GAL4-DBD fused PPARalpha LBD expressed in COS7 cells at 10 uM after 24 hrs by luciferase reporter gene assay relative to 2-(4-tert-Butylphenoxy)-3-[4-[2-[(4-pyridin-2-ylbenzoyl)amino]ethoxy] phenyl]propionic acid. The format is cell-based.

Series [7] can be described thus: Metabolic stability in human liver microsomes after 0.5 hrs. The note with it: read-out: Stability. The format is ADME, microsome. Background: Liver microsomes are a subcellular fraction often used to study metabolism.
In series [8] the target is T3, Peroxisome proliferator-activated receptor gamma (Homo sapiens, UniProt P37231).
T3 sequence (P37231 whole entry): T1 sequence (whole entry)
Description: Agonist activity at recombinant human GAL4-DBD fused PPARgamma LBD expressed in COS7 cells after 24 hrs by luciferase reporter gene assay. It counts as cell-based.

Series [9] has as its target T4, Peroxisome proliferator-activated receptor alpha (Homo sapiens, UniProt Q07869).
T4 sequence (Q07869 whole entry): T2 sequence (whole entry)
Kind of series: Agonist activity at recombinant human GAL4-DBD fused PPARalpha LBD expressed in COS7 cells after 24 hrs by luciferase reporter gene assay. It counts as cell-based.

Series [10] in a line: Clearance in cynomolgus monkey at 1 mg/kg, iv by LC-MS/MS. The format is ADME, organism-based, Macaca fascicularis. As to conditions: in vivo.
A short description of series [11]: Volume of distribution at steady state in cynomolgus monkey at 1 mg/kg, iv by LC-MS/MS. The format is ADME, organism-based, Macaca fascicularis. The note with it: in vivo, read-out: Vdss.
Series [12] is described as follows: Cmax in cynomolgus monkey at 3 mg/kg, po by LC-MS/MS. It counts as ADME, organism-based, Macaca fascicularis. Also noted: dose 3 mg/kg, route oral. The note with it: in vivo.
Series [13] is described as follows: AUClast in cynomolgus monkey at 3 mg/kg, po by LC-MS/MS. As to conditions: in vivo. Further details: dose 3 mg/kg, time 0 - last, route oral. It counts as ADME, organism-based, Macaca fascicularis.
The nature of series [14]: Half life in cynomolgus monkey at 3 mg/kg, po by LC-MS/MS. It counts as ADME, organism-based, Macaca fascicularis. The note with it: in vivo.
Series [15] can be described thus: Metabolic stability in cynomolgus monkey liver microsomes after 0.5 hrs. The format is ADME, Macaca fascicularis, microsome. The note with it: read-out: Stability.
Series [16] relates to Hepatocyte. Description: Cytotoxicity against F344/DuCrlCrlj rat primary hepatocytes assessed as reduction in mitochondrial enzyme activity at 100 uM after 24 hrs by WST8 assay relative to control. The format is cell-based. Also noted: scale not given: the % may be the effect or the level left.
The nature of series [17]: Tmax in cynomolgus monkey at 3 mg/kg, po by LC-MS/MS. It counts as ADME, organism-based, Macaca fascicularis. The note with it: in vivo.
For the next series, the system named is Rattus norvegicus. Description: Antidiabetic activity in Zucker diabetic fatty rat assessed as reduction in plasma glucose level administered orally once daily for 21 days measured on day 22. It counts as functional, organism-based.
In series [18] the target is T5, Peroxisome proliferator-activated receptor delta (Homo sapiens) (UniProt Q03181).
T5 sequence (whole entry): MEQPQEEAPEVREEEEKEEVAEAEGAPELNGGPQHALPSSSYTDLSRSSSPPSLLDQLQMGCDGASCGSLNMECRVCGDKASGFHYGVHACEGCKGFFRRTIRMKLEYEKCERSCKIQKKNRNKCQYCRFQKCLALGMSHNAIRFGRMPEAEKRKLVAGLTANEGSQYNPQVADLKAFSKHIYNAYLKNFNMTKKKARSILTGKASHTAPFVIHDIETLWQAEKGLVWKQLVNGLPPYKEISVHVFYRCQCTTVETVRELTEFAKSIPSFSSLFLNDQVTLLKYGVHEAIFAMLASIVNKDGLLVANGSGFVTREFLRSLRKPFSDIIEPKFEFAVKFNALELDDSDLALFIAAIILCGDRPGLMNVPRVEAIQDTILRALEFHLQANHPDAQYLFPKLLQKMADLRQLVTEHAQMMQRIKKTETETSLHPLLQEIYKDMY
Kind of series: Agonist activity at PPARdelta (unknown origin) at 10 uM.

Series [19] can be described thus: Aqueous thermodynamic solubility of the compound in pH 6.8 solution up to 4 hrs by HPLC-UV analysis. It counts as physicochemical. The note with it: read-out: Therm_solubility.
The test system of series [20] is Hepatocyte. Kind of series: Cytotoxicity against F344/DuCrlCrlj rat primary hepatocytes assessed as reduction in cell viability at 100 uM after 24 hrs by LDH release assay. The format is cell-based.
Series [21] relates to Hepatocyte. Kind of series: Cytotoxicity against F344/DuCrlCrlj rat primary hepatocytes assessed as reduction in cell viability at 10 to 100 uM after 24 hrs by LDH release assay. The format is cell-based.

≈ marks a conversion by molar mass, not a printed value. Calls of active or inactive are those of the source. No cut-off for these calls is given here.

The values below come from ChEMBL document CHEMBL4152362, “Discovery of DS-6930, a potent selective PPARγ modulator. Part II: Lead optimization” (Bioorg Med Chem, 2018).

The logD is lipophilicity at a set pH, counting ionised and neutral species. For orientation: bioavailability means dose-corrected exposure relative to a reference, in per cent. In general, Papp refers to the rate of passage across a membrane or cell layer, normalised by area and donor concentration. By EC50 is commonly meant the concentration needed to bring the measured effect to its halfway point. By clearance is commonly meant the volume of plasma or blood freed of the substance per unit of time. Broadly, the Cmax is the maximum level reached in the sampled fluid or tissue. For orientation: AUC(0-t) means exposure summed from dosing to a finite time, without extrapolation to infinity. The half-life is how long it takes for the measured level to halve. For orientation: Tmax means the time from dosing to the highest level. `Cn1c(COc2cccc(C(=O)O)c2)nc2ccc(Oc3ccc(Cl)c(F)c3)cc21`: the logD at 0.5 h in series [1] stood at 2.7. Besides, the Activity entry in the series on Hepatocyte [2] was “Dose-dependent effect”; in the series on Hepatocyte [16] it was 19%. In series [3], the bioavailability is 25%. The values for the Emax in [4] and in series [6] were 82% and 32%, respectively. Moreover, the apparent permeability coefficient (Papp) at 4 h in series [5] is 38.5 ×10⁻⁶ cm/s. The remaining at 0.5 h in [7] and in series [15] was 100% throughout. In addition, the EC50 is 0.068 µM in [8] and greater than 10 µM in series [9]. The molecule also gave a clearance in series [10] of 0.32 mL/min/kg. Also, the Vd in series [11] turned out to be 0.2 L/kg. Further, the Cmax in series [12] was determined as 4440 ng/mL. In [13], this molecule had an exposure AUC(0-t) of 40200 ng·h/mL. Further, the half-life in [14] is 18.3 h. Further, the time to peak (Tmax) in series [17] came to 1.67 h.
Regarding `Cc1cnc(Oc2ccc3nc(COc4cccc(C(=O)O)c4)n(C)c3c2)c(C)c1`, in the series with Rattus norvegicus, the Activity result is “Dose-dependent effect”. The Emax in series [6] is 13%. Also, in series [18], the outcome was inactive.
In [1], `Cc1cnc(Oc2ccc3nc(COc4cccc(C(=O)O)c4)n(C)c3c2)c(F)c1` showed a logD at 0.5 h of 1.1. In addition, the solubility thermodynamic at 4 h in [19] was 9.2 µg/mL (≈ 22.6 µM). For the same molecule, the Activity result is reported as “Non-Toxic” in the series on Hepatocyte [2], “Toxic” in the series on Hepatocyte [20] and “Non-Toxic” in the series with Hepatocyte [21]. In series [3], the bioavailability turned out to be 8.9%. Also, the Papp at 4 h in series [5] turned out to be 5.8 ×10⁻⁶ cm/s. In series [7], the remaining at 0.5 h was found to be 100%. The EC50 in series [9] was greater than 10 µM. The same molecule had a clearance in series [10] of 3.07 mL/min/kg. Besides, the Vd in series [11] turned out to be 0.88 L/kg. Moreover, in series [12], the concentration peaked (Cmax) at 100 ng/mL. Moreover, the AUC(0-t) in series [13] worked out at 1470 ng·h/mL. In series [14], the half-life was 49.8 h. In series [17], the time to peak (Tmax) came out at 4 h.
